The text below walks through data of ChEMBL document CHEMBL5137096, “Antiviral Profiling of C-18- or C-19-Functionalized Semisynthetic Abietane Diterpenoids” (J Nat Prod, 2022).

Active and inactive are the calls of the source. The calls are words filed in the database; no cut-off is given here.

One data set concerns BHK-21. Kind of data set: Cytotoxicity against golden hamster BHK-21 cells measured after 6 days by MTT assay. Conditions: bhk-21, 144 h, time 6 day. The class given is toxicity, cell-based, Mesocricetus auratus. A general note: Formazan colour is commonly taken as a measure of viable cells.
For the next data set, the system named is Chikungunya virus. The class given is functional, Vero E6. Conditions: time 72 hrs.
The test system of a further data set is Vero C1008. Kind of data set: Cytotoxicity against African green monkey Vero E6 cells measured after 72 hrs by MTT assay. The class given is toxicity, cell-based. The note with it: chlorocebus sabaeus, vero c1008, 72 h.
Data set [1] relates to Zika virus. The class given is functional, Vero E6. Conditions: time 72 hrs.
The test system of data set [2] is Zika virus. The class given is functional, Vero E6. The note with it: time 72 hrs. This is another data set of the same source.
The next data set has as its system Human alphaherpesvirus 1. The class given is functional, 29R, Vero E6. The note with it: time 72 hrs.
Data set [3] relates to dengue virus type 2. The class given is functional, Vero E6. The note with it: time 72 hrs.
Data set [4] has as its system dengue virus type 2. Kind of data set: Antiviral activity against DENV2 infected in hamster BHK-21 cells assessed as inhibition of plaque formation by measuring reduction in PFU per well incubated for 6 days by crystal violet staining based assay. Type of data set: functional. The note with it: time 6 day.
In data set [5] the test system is Zika virus. Description: Antiviral activity against ZIKV Col infected in African Green monkey Vero cells assessed as inhibition of viral replication by measuring reduction in viral genomic copies at 12.5 to 25 ug/ml by qRT-PCR analysis. The class given is functional, organism-based. The note with it: dose 12.5-25 µg/ml.
Data set [6] has as its system Zika virus. Kind of data set: Antiviral activity against ZIKV IMT17. The class given is functional, organism-based.
The test system of data set [7] is Zika virus. Kind of data set: Antiviral activity against ZIKV Col infected in African Green monkey Vero cells assessed as reduction in viral protein production at 3.1 to 25 ug/ml by ELISA relative control. Set-up: scale not given: the % may be the effect or the level left. The class given is functional. The note with it: dose 3.1-25 µg/ml; at 3.1 to 25 µg/mL. (In general: In an ELISA, binding on a coated surface is turned into a signal by an enzyme label.)

On to `COC(=O)[C@@]1(C)CCC[C@]2(C)c3cc(OC(C)=O)c(C(C)C)cc3C(=O)C[C@@H]12`, for which the results for the CC100 with BHK-21 and in the data set with Vero C1008 were 25 µg/mL and 50 µg/mL, respectively. In addition, the EC with Chikungunya virus and in the data set with Zika virus [1] was 25 µg/mL each time.

`CC(C)c1cc2c(cc1O)[C@@]1(C)CCC[C@](C)(C(=O)O)[C@@H]1CC2` [LAMBERTIC ACID]: the CC100 with BHK-21 and with Vero C1008 was > 50 µg/mL in each case. Besides, the EC with Zika virus [2], in the data set on Chikungunya virus, in the data set with Human alphaherpesvirus 1, in the data set on dengue virus type 2 [3] and in the data set on Zika virus [1] was 25 µg/mL each time.

On to `COC(=O)[C@]1(C)CCC[C@]2(C)c3ccc(C(C)C)cc3CC[C@@H]12`, for which the CC100 is 50 µg/mL with BHK-21 and > 50 µg/mL in the data set with Vero C1008. Also, the values for the EC with Zika virus [2], in the data set on Human alphaherpesvirus 1 and with Zika virus [1] were 12.5 µg/mL, 25 µg/mL and 6.2 µg/mL, respectively.

In the case of `CC(C)c1ccc2c(c1O)CC[C@H]1[C@](C)(C(=O)O)CCC[C@]21C`, the CC100 with BHK-21 and in the data set with Vero C1008 was > 25 µg/mL each time. For the same compound, the EC in the data set with Zika virus [2] amounted to 12.5 µg/mL; with Chikungunya virus, 25 µg/mL; in the data set with Zika virus [1] it was 25 µg/mL.

`CC(C)c1cc2c(cc1O)[C@@]1(C)CCCC(C)(C)[C@@H]1CC2` [FERRUGINOL]: the CC100 in the data set with BHK-21 and in the data set on Vero C1008 was > 50 µg/mL each time. The EC came to 25 µg/mL with Chikungunya virus, 12.5 µg/mL in the data set on dengue virus type 2 [4], 25 µg/mL in the data set with dengue virus type 2 [3] and 12.5 µg/mL in the data set with Zika virus [1].

Take `COC(=O)[C@@]1(C)CCC[C@]2(C)c3cc(O)c(C(C)C)cc3CC[C@@H]12`: the CC100 in the data set on BHK-21 was 50 µg/mL; with Vero C1008, > 50 µg/mL. Besides, the EC came to 12.5 µg/mL with Zika virus [2]; 12.5 µg/mL in the data set on Chikungunya virus; 12.5 µg/mL in the data set with dengue virus type 2 [4]; 25 µg/mL with dengue virus type 2 [3]; 25 µg/mL with Zika virus [1].

As for `NC(=O)c1ncn([C@@H]2O[C@H](CO)[C@@H](O)[C@H]2O)n1` [RIBAVIRIN], the CC100 in the data set with BHK-21 and in the data set with Vero C1008 was > 160 µg/mL each time.

Regarding `CC(C)c1ccc2c(c1O)CC[C@H]1[C@](C)(CO)CCC[C@]21C`, the CC100 with BHK-21 and in the data set on Vero C1008 was > 25 µg/mL each time. Moreover, the EC with Chikungunya virus and with Zika virus [1] was 12.5 µg/mL each time.

Take `COC(=O)[C@]1(C)CCC[C@]2(C)c3cc(O)c(C(C)C)cc3C(=O)C[C@@H]12`: the values for the CC100 in the data set with BHK-21 and in the data set on Vero C1008 were 25 µg/mL and 50 µg/mL, respectively. Moreover, the EC with Chikungunya virus and in the data set with Human alphaherpesvirus 1 was 25 µg/mL each time.

Compound `Nc1nc2c(ncn2COCCO)c(=O)[nH]1` [ACYCLOVIR] returned an EC in the data set on Human alphaherpesvirus 1 of 1.5 µg/mL.

As for `CC(C)c1ccc2c(c1)CC[C@H]1C(C)(C(=O)O)CCC[C@]21C` (stereo not given in full), the CC100 in the data set with BHK-21 and in the data set with Vero C1008 was 50 µg/mL each time. For the same compound, the EC with Chikungunya virus is 12.5 µg/mL; in the data set with Human alphaherpesvirus 1, 25 µg/mL; with dengue virus type 2 [3], 25 µg/mL; in the data set on Zika virus [1], 12.5 µg/mL.

With `COC(=O)[C@]1(C)CCC[C@]2(C)c3cc(OC(C)=O)c(C(C)C)cc3CC[C@@H]12`, the CC100 in the data set with BHK-21 and in the data set with Vero C1008 was 50 µg/mL each time. Besides, the EC was 12.5 µg/mL in the data set with Zika virus [2], 25 µg/mL in the data set with Chikungunya virus and 12.5 µg/mL in the data set with Human alphaherpesvirus 1.

Consider `COC(=O)[C@]1(C)CCC[C@]2(C)c3ccc(C(C)C)c(O)c3CC[C@@H]12`, for which the CC100 with BHK-21 and in the data set on Vero C1008 was > 25 µg/mL in each case. For the same compound, the EC was found to be 12.5 µg/mL with Chikungunya virus; 12.5 µg/mL with Human alphaherpesvirus 1; 3.1 µg/mL with dengue virus type 2 [4]; 25 µg/mL in the data set with dengue virus type 2 [3]; 12.5 µg/mL in the data set on Zika virus [1].

As to `CC(C)c1ccc2c(c1)CC[C@H]1C(C)(CO)CCC[C@]21C` (stereo not given in full), the CC100 with BHK-21 and in the data set on Vero C1008 was > 50 µg/mL each time. The EC in the data set with Chikungunya virus was 25 µg/mL; in the data set with dengue virus type 2 [4] it was 12.5 µg/mL; with dengue virus type 2 [3] it was 25 µg/mL; in the data set on Zika virus [1] it was 12.5 µg/mL.

For the compound `CC(C)c1cc2c(cc1O)[C@@]1(C)CCC[C@@](C)(CO)[C@@H]1CC2=O`, the CC100 amounted to 12.5 µg/mL with BHK-21 and 25 µg/mL in the data set with Vero C1008. Also, the EC in the data set on Chikungunya virus stood at 25 µg/mL; with Human alphaherpesvirus 1, 12.5 µg/mL; in the data set with dengue virus type 2 [3] it was 12.5 µg/mL; in the data set with Zika virus [1], 12.5 µg/mL.

In the case of `COC(=O)[C@@]1(C)CCC[C@]2(C)c3cc(O)c(C(C)C)cc3C(=O)C[C@@H]12`, the CC100 with BHK-21 stood at 12.5 µg/mL; in the data set with Vero C1008, 25 µg/mL. Moreover, the EC came out at 12.5 µg/mL with Chikungunya virus and 12 µg/mL in the data set on dengue virus type 2 [3].

Turning to `CC(C)c1cc2c(cc1O)[C@@]1(C)CCC[C@@](C)(C(=O)O)[C@@H]1CC2=O`, the values for the CC100 in the data set with BHK-21 and in the data set with Vero C1008 were 50 µg/mL and > 50 µg/mL, respectively. For the same compound, the EC in the data set with Chikungunya virus and in the data set on Human alphaherpesvirus 1 was 25 µg/mL throughout.

In the case of `COC(=O)[C@@]1(C)CCC[C@]2(C)c3cc(C(C)=O)c(C(C)C)cc3CC[C@@H]12`, the results for the CC100 in the data set on BHK-21 and in the data set with Vero C1008 were 50 µg/mL and > 50 µg/mL, respectively. In addition, the EC in the data set on Zika virus [2], with Chikungunya virus, in the data set with Human alphaherpesvirus 1, with dengue virus type 2 [3] and in the data set with Zika virus [1] was 25 µg/mL throughout.

Consider `CC(C)c1cc2c(cc1O)[C@@]1(C)CCC[C@@](C)(C(=O)O)[C@@H]1CC2`, for which the CC100 was found to be 12.5 µg/mL in the data set with BHK-21 and 25 µg/mL in the data set with Vero C1008. The EC was determined as 25 µg/mL in the data set on Chikungunya virus and 12.5 µg/mL with Human alphaherpesvirus 1.

Take `COC(=O)[C@]1(C)CCC[C@]2(C)c3cc(O)c(C(C)C)cc3CC[C@@H]12`: the values for the CC100 in the data set with BHK-21 and with Vero C1008 were 25 µg/mL and 50 µg/mL, respectively. The EC stood at 25 µg/mL with Chikungunya virus and 12.5 µg/mL in the data set with Human alphaherpesvirus 1.

On to `CC(C)c1cc2c(cc1O)[C@@]1(C)CCC[C@@](C)(CO)[C@@H]1CC2` [18-HYDROXYFERRUGINOL], for which the CC100 with BHK-21 and with Vero C1008 was 50 µg/mL in each case. In addition, the EC in the data set with Zika virus [2] came out at 12.5 µg/mL; in the data set with Chikungunya virus it was 12.5 µg/mL; in the data set on Human alphaherpesvirus 1, 12.5 µg/mL; with dengue virus type 2 [4], 3.1 µg/mL; in the data set with dengue virus type 2 [3], 25 µg/mL; in the data set on Zika virus [1], 25 µg/mL.

On to `CC(C)c1cc2c(cc1O)[C@@]1(C)CCC[C@](C)(C(=O)O)[C@@H]1CC2=O`, for which the CC100 in the data set on BHK-21 was 12.5 µg/mL; with Vero C1008, 25 µg/mL.

Consider `CC(C)c1cc2c(cc1O)[C@@]1(C)CCC[C@](C)(CO)[C@@H]1CC2=O`, for which the CC100 in the data set with BHK-21 is 25 µg/mL; in the data set on Vero C1008, > 25 µg/mL. Further, the EC in the data set on Chikungunya virus and with Human alphaherpesvirus 1 was 25 µg/mL each time.

On to `CC(C)c1cc2c(cc1O)[C@@]1(C)CCC[C@@](C)(CN3C(=O)c4ccccc4C3=O)[C@@H]1CC2`, for which the CC100 in the data set with BHK-21 and in the data set with Vero C1008 was > 50 µg/mL in each case. Moreover, the inhibition entry with Zika virus [5] was “Active”. Moreover, the EC in the data set with Zika virus [2] came out at 3.1 µg/mL; with Chikungunya virus it was 6.2 µg/mL; with Human alphaherpesvirus 1 it was 12.5 µg/mL; with dengue virus type 2 [4], 12.5 µg/mL; with dengue virus type 2 [3], 25 µg/mL; in the data set on Zika virus [1] it was 6.2 µg/mL. Also, the EC50 (usually the midpoint of the concentration-response curve) with Zika virus [6] was found to be 7.7 µM. The Activity with Zika virus [7] was <50%.

Regarding `COC(=O)[C@@]1(C)CCC[C@]2(C)c3cc(OC(C)=O)c(C(C)C)cc3CC[C@@H]12`, the CC100 in the data set with BHK-21 and with Vero C1008 was 25 µg/mL throughout. Besides, the EC with Chikungunya virus came out at 25 µg/mL; in the data set on dengue virus type 2 [3], 12.5 µg/mL; in the data set on Zika virus [1], 12.5 µg/mL.

On to `COC(=O)[C@]1(C)CCC[C@]2(C)c3cc(C(C)=O)c(C(C)C)cc3CC[C@@H]12`, for which the CC100 was 25 µg/mL in the data set with BHK-21 and > 50 µg/mL in the data set on Vero C1008. The figures for the EC in the data set on Chikungunya virus and with Human alphaherpesvirus 1 were 25 µg/mL and 12.5 µg/mL, respectively.

In the case of `COC(=O)[C@]1(C)CCC[C@]2(C)c3cc(OC(C)=O)c(C(C)C)cc3C(=O)C[C@@H]12`, the CC100 in the data set on BHK-21 and with Vero C1008 was 25 µg/mL each time. For the same compound, in the data set on Human alphaherpesvirus 1, the EC came to 25 µg/mL.

For `CC(C)c1cc2c(cc1O)[C@@]1(C)CCC[C@](C)(CO)[C@@H]1CC2`, the CC100 in the data set on BHK-21 was 12.5 µg/mL; in the data set with Vero C1008 it was 25 µg/mL. In addition, the EC was 25 µg/mL in the data set on Chikungunya virus, 12.5 µg/mL in the data set on Human alphaherpesvirus 1 and 12.5 µg/mL with Zika virus [1].
